{"source": "paper PMC10576769", "about": "(Nature Communications, 2023)", "key": {"LmPC-PLC^C143S+C168S": {"system": "LmPC-PLC^C143S+C168S", "assay_type": "biochemical, Listeria monocytogenes", "conditions": "Fig. 4g, as E100"}, "LmPC-PLC^C143S": {"system": "LmPC-PLC^C143S", "assay_type": "biochemical, Listeria monocytogenes", "conditions": "Fig. 4g, as E100"}, "CpPC-PLC [1]": {"system": "CpPC-PLC", "assay_type": "biochemical, Clostridium perfringens"}, "CpPC-PLC [2]": {"system": "CpPC-PLC", "assay_type": "biochemical, Clostridium perfringens", "remark": "listed apart in the source"}, "BcPC-PLC [3]": {"system": "BcPC-PLC", "assay_type": "biochemical, Bacillus cereus"}, "BcPC-PLC [4]": {"system": "BcPC-PLC", "assay_type": "biochemical, Bacillus cereus", "remark": "listed apart in the source"}, "LmPC-PLC^C168S": {"system": "LmPC-PLC^C168S", "assay_type": "biochemical, Listeria monocytogenes", "conditions": "Fig. 4g, as E100"}, "[5]": {"assay_type": "binding", "conditions": "pH 6.5"}, "LmPC-PLC": {"molecular_target": "LmPC-PLC (Listeria monocytogenes serovar 1/2a, UniProt P33378)", "experiment": "biochemical", "assay_type": "biochemical", "conditions": "for Enzymatic activity towards 4-NPPC (slope): Lm 500 nM, 0 = no slope could be determined; for Enzymatic activity towards 4-NPPC (slope) / Activity of LmPC-PLC towards 4-NPPC (slope): 4-NPPC 1 mM; for Activity of LmPC-PLC towards 4-NPPC (slope): LmPC-PLC 500 nM, 20 mM MES pH 6.5, 150 mM NaCl, 50 μM ZnSO4"}}, "note": "Where “and” joins values, the source holds several entries; their conditions need not be identical. Equal values may be shown once. Read-outs that look alike come from different tables or passages of the source. Where a SMILES comes first, the peptide text is derived from it."}
{"compound": "C[C@H](NC(=O)[C@@H](N)CC(N)=O)C(=O)N[C@@H](CS)C(=O)N[C@@H](CS)C(=O)N[C@@H](CC(=O)O)C(=O)N[C@@H](CCC(=O)O)C(=O)O", "note": "[NE-6] (H-NACCDE-OH; N-terminus and C-terminus assumed)", "values": [{"measurement": "relative activity of LmPC-PLC C143S+ C168S on 4-NPPC (compared to uninhibited activity)", "setting": "LmPC-PLC^C143S+C168S; replicate 1", "value": 1.106}, {"measurement": "relative activity of LmPC-PLC C143S+ C168S on 4-NPPC (compared to uninhibited activity)", "setting": "LmPC-PLC^C143S+C168S; replicate 2", "value": 1.078}, {"measurement": "relative activity of LmPC-PLC C143S+ C168S on 4-NPPC (compared to uninhibited activity)", "setting": "LmPC-PLC^C143S+C168S; replicate 3", "value": 1.062}, {"measurement": "relative activity of LmPC-PLC C143S on 4-NPPC (compared to uninhibited activity)", "setting": "LmPC-PLC^C143S; replicate 1", "value": 0.8443}, {"measurement": "relative activity of LmPC-PLC C143S on 4-NPPC (compared to uninhibited activity)", "setting": "LmPC-PLC^C143S; replicate 2", "value": 0.9328}, {"measurement": "relative activity of LmPC-PLC C143S on 4-NPPC (compared to uninhibited activity)", "setting": "LmPC-PLC^C143S; replicate 3", "value": 0.9098}, {"measurement": "relative activity on POPC (compared to uninhibited activity), Cp", "setting": "CpPC-PLC [1]", "value": "1.136 and 1.059 and 1.144"}, {"measurement": "relative activity on 4-NPPC (compared to uninhibited activity), Cp", "setting": "CpPC-PLC [2]", "value": "0.8963 and 0.9574 and 0.885"}, {"measurement": "relative activity on 4-NPPC (compared to uninhibited activity), Bc", "setting": "BcPC-PLC [3]", "value": "0.9308 and 0.8774 and 0.8898"}, {"measurement": "relative activity on POPC (compared to uninhibited activity), Bc", "setting": "BcPC-PLC [4]", "value": "1.041 and 0.8984 and 0.9777"}, {"measurement": "relative activity of LmPC-PLC C168S on 4-NPPC (compared to uninhibited activity)", "setting": "LmPC-PLC^C168S; replicate 1", "value": 0.4893}, {"measurement": "relative activity of LmPC-PLC C168S on 4-NPPC (compared to uninhibited activity)", "setting": "LmPC-PLC^C168S; replicate 2", "value": 0.5344}, {"measurement": "relative activity of LmPC-PLC C168S on 4-NPPC (compared to uninhibited activity)", "setting": "LmPC-PLC^C168S; replicate 3", "value": 0.4659}]}
{"compound": "c1cnc2c(c1)ccc1cccnc12", "note": "[O-phe, O-phenanthroline]", "values": [{"measurement": "Enzymatic activity towards 4-NPPC (slope)", "setting": "CpPC-PLC [2]", "value": 0}, {"measurement": "Enzymatic activity towards 4-NPPC (slope)", "setting": "BcPC-PLC [3]", "value": 0}, {"measurement": "% of LLO in the pellet fraction", "setting": "[5]", "value": 22.84, "unit": "%"}, {"measurement": "Enzymatic activity towards 4-NPPC (slope)", "setting": "LmPC-PLC; O-phe 1 mM + ions (50 μM ZnSO4), replicate 1", "value": 0}, {"measurement": "Enzymatic activity towards 4-NPPC (slope)", "setting": "LmPC-PLC; O-phe 1 mM + ions (50 μM ZnSO4), replicate 2", "value": 0}, {"measurement": "Enzymatic activity towards 4-NPPC (slope)", "setting": "LmPC-PLC; O-phe 1 mM + ions (50 μM ZnSO4), replicate 3", "value": 0}, {"measurement": "Enzymatic activity towards 4-NPPC (slope)", "setting": "LmPC-PLC; O-phe 1 mM, no ions added, replicate 1", "value": 0}, {"measurement": "Enzymatic activity towards 4-NPPC (slope)", "setting": "LmPC-PLC; O-phe 1 mM, no ions added, replicate 2", "value": 0}, {"measurement": "Enzymatic activity towards 4-NPPC (slope)", "setting": "LmPC-PLC; O-phe 1 mM, no ions added, replicate 3", "value": 0}, {"measurement": "inhibition of LmPC-PLC activity by O-phe", "setting": "LmPC-PLC; O-phe 1 mM, 50 μM Zn2+ added to the protein, 30 min preincubation, 4-NPPC, Supplementary Fig. 9c", "value": "completely inhibited"}, {"measurement": "Activity of LmPC-PLC towards 4-NPPC (slope)", "setting": "LmPC-PLC; inhibitor 4 uM, replicate 1 of N=3", "value": 0.0003865, "unit": "abs/min"}, {"measurement": "Activity of LmPC-PLC towards 4-NPPC (slope)", "setting": "LmPC-PLC; inhibitor 4 uM, replicate 2 of N=3", "value": 0.0003893, "unit": "abs/min"}, {"measurement": "Activity of LmPC-PLC towards 4-NPPC (slope)", "setting": "LmPC-PLC; inhibitor 4 uM, replicate 3 of N=3", "value": 0.0004002, "unit": "abs/min"}, {"measurement": "Activity of LmPC-PLC towards 4-NPPC (slope)", "setting": "LmPC-PLC; inhibitor 8 uM, replicate 1 of N=3", "value": 0.0003883, "unit": "abs/min"}, {"measurement": "Activity of LmPC-PLC towards 4-NPPC (slope)", "setting": "LmPC-PLC; inhibitor 8 uM, replicate 2 of N=3", "value": 0.0003708, "unit": "abs/min"}, {"measurement": "Activity of LmPC-PLC towards 4-NPPC (slope)", "setting": "LmPC-PLC; inhibitor 8 uM, replicate 3 of N=3", "value": 0.0003802, "unit": "abs/min"}, {"measurement": "Activity of LmPC-PLC towards 4-NPPC (slope)", "setting": "LmPC-PLC; inhibitor 16 uM, replicate 1 of N=3", "value": 0.0003736, "unit": "abs/min"}, {"measurement": "Activity of LmPC-PLC towards 4-NPPC (slope)", "setting": "LmPC-PLC; inhibitor 16 uM, replicate 2 of N=3", "value": 0.0003589, "unit": "abs/min"}, {"measurement": "Activity of LmPC-PLC towards 4-NPPC (slope)", "setting": "LmPC-PLC; inhibitor 16 uM, replicate 3 of N=3", "value": 0.0003489, "unit": "abs/min"}, {"measurement": "Activity of LmPC-PLC towards 4-NPPC (slope)", "setting": "LmPC-PLC; inhibitor 31 uM, replicate 1 of N=3", "value": 0.0003148, "unit": "abs/min"}, {"measurement": "Activity of LmPC-PLC towards 4-NPPC (slope)", "setting": "LmPC-PLC; inhibitor 31 uM, replicate 2 of N=3", "value": 0.0003263, "unit": "abs/min"}, {"measurement": "Activity of LmPC-PLC towards 4-NPPC (slope)", "setting": "LmPC-PLC; inhibitor 31 uM, replicate 3 of N=3", "value": 0.0003082, "unit": "abs/min"}, {"measurement": "Activity of LmPC-PLC towards 4-NPPC (slope)", "setting": "LmPC-PLC; inhibitor 63 uM, replicate 1 of N=3, value 0 = no slope could be determined", "value": 0.0002666, "unit": "abs/min"}, {"measurement": "Activity of LmPC-PLC towards 4-NPPC (slope)", "setting": "LmPC-PLC; inhibitor 63 uM, replicate 2 of N=3, value 0 = no slope could be determined", "value": 0.0002954, "unit": "abs/min"}, {"measurement": "Activity of LmPC-PLC towards 4-NPPC (slope)", "setting": "LmPC-PLC; inhibitor 63 uM, replicate 3 of N=3, value 0 = no slope could be determined", "value": 0.000224, "unit": "abs/min"}, {"measurement": "Activity of LmPC-PLC towards 4-NPPC (slope)", "setting": "LmPC-PLC; inhibitor 125 uM, replicate 1 of N=3, value 0 = no slope could be determined", "value": "8.381e-5", "unit": "abs/min"}, {"measurement": "Activity of LmPC-PLC towards 4-NPPC (slope)", "setting": "LmPC-PLC; inhibitor 125 uM, replicate 2 of N=3, value 0 = no slope could be determined", "value": 0.0001203, "unit": "abs/min"}, {"measurement": "Activity of LmPC-PLC towards 4-NPPC (slope)", "setting": "LmPC-PLC; inhibitor 125 uM, replicate 3 of N=3, value 0 = no slope could be determined", "value": "8.369e-5", "unit": "abs/min"}]}
